Source: US5200409A, “Composition and use of substituted 1,3-dithiolo-and 1,4-dithiinoquinoxalines as an antimicrobial” (The Dow Chemical Company, priority 1992, dated 1993)
≈ marks a conversion by molar mass, not a printed value. Like-named read-outs stand apart in the source and are kept apart here.

Key:
[1] = tested on: Bacillus subtilis (Bs); experiment: Minimum inhibitory concentration (MIC) in nutrient agar; type: cell-based, Bacillus subtilis ATCC 8473
Experimental: (§1) The minimum inhibitory concentration (MIC) for the compounds listed in Table I is determined for 9 bacteria, using nutrient agar: and 7 yeast and fungi, using malt yeast agar. A one percent solution of the test compound is prepared in a mixture of acetone and water. Nutrient agar is prepared at pH 6.8, representing a neutral medium, and at pH 8.2, representing an alkaline medium. The nutrient agars are prepared by adding 23 g of nutrient agar to one-liter of deionized water. In addition, the alkaline medium is prepared by adjusting a 0.04M solution of N-[tris-(hydroxymethyl)methyl]-glycine buffered deionized water with concentrated sodium hydroxide to a pH of […]. Malt yeast agar is prepared by adding 3 g yeast extract and 45 g malt agar per liter of deionized water. The specific agar is dispensed in 30 ml aliquots into 25×200 mm test tubes, capped and autoclaved for 15 minutes at 115° C. The test tubes containing the agar are cooled in a water bath until the temperature of the agar is 48° C. Then, an appropriate amount of the one percent solution of the test compound is added (except in the controls where no compound is added) to the respective test tubes so that the final concentrations are 500, 250, 100, 50, 25, 10, 5, 2.5, 1.0 and zero parts per million of the test compound in the agar, thus having a known concentration of test compound dispersed therein. The contents of the test tubes are then transferred to respective petri plates. After drying for 24 hours, the petri plates containing nutrient agar are inoculated with bacteria and those containing malt yeast agar are inoculated with yeast and fungi.
(§2) The inoculation with bacteria is accomplished by using the following procedure. Twenty-four hour-cultures of each of the bacteria are prepared by incubating the respective bacteria in tubes containing nutrient broth for 24 hours at 30° C. in a shaker. Dilutions of each of the 24 hour-cultures are made so that nine separate suspensions (one for each of the nine test bacteria) are made, each containing 10^8 colony forming units (CFU) per ml of suspension of a particular bacteria. Aliquots of 0.3 ml of each of the bacterial suspensions are used to fill the individual wells of Steer's Replicator. For each microbial suspension, 0.3 ml was used to fill three wells (i.e., three wells of 0.3 ml each) so that for the nine different bacteria, 27 wells are filled. The Steer's Replicator is then used to inoculate both the neutral and alkaline pH nutrient agar petri plates.
(§3) The inoculated petri plates are incubated at 30° C. for 48 hours and then read to determine if the test compound which is incorporated into the agar prevented growth of the respective bacteria.
(§4) Table II lists the bacteria, yeast and fungi used in the MIC test described above along with their respective American Type Culture Collection (ATCC) identification numbers.

[2] = tested on: Enterobacter aerogenes (Ea); experiment: as above; type: cell-based, Enterobacter aerogenes ATCC 13048; details: Klebsiella aerogenes
Experimental: as §1, §2, §3, §4

[3] = tested on: Escherichia coli (Ec); experiment: as above; type: cell-based, Escherichia coli ATCC 11229; details: 48 h
Experimental: as §1, §2, §3, §4

[4] = tested on: Klebsiella pneumoniae (Kp); experiment: as above; type: cell-based, Klebsiella pneumoniae ATCC 8308
Experimental: as §1, §2, §3, §4

[5] = tested on: Proteus vulgaris (Pv); experiment: as above; type: cell-based, Proteus vulgaris ATCC 881
Experimental: as §1, §2, §3, §4

[6] = tested on: Pseudomonas aeruginosa (PRD-10); experiment: as above; type: cell-based, Pseudomonas aeruginosa ATCC 15442
Experimental: as §1, §2, §3, §4

[7] = tested on: Pseudomonas aeruginosa (Pa); experiment: as above; type: cell-based, Pseudomonas aeruginosa ATCC 10145; details: 48 hours
Experimental: as §1, §2, §3, §4

[8] = tested on: Salmonella choleraesuis (Sc); experiment: as above; type: cell-based, Salmonella choleraesuis ATCC 10708; details: Salmonella enterica
Experimental: as §1, §2, §3, §4

[9] = tested on: Staphylococcus aureus (Sa); experiment: as above; type: cell-based, Staphylococcus aureus ATCC 6538
Experimental: as §1, §2, §3, §4

[10] = tested on: Aspergillus niger (An); experiment: Minimum inhibitory concentration (MIC) in malt yeast agar; type: cell-based, Aspergillus niger ATCC 16404; details: malt yeast agar; 30° C.; 72 hours for fungi; read-out: Minimum Inhibitory Concentration, An
Experimental: as §1
(§5) The inoculation with the yeast and fungi is accomplished as follows. Cultures of yeast and fungi are incubated for seven days on malt yeast agar at 30° C. These cultures are used to prepare suspensions by the following procedure. A suspension of each organism is prepared by adding 10 ml of sterile saline and 10 microliters of octylphenoxy polyethoxy ethanol to the agar slant of yeast or fungi. The sterile saline/octylphenoxy polyethoxy ethanol solution is then agitated with a sterile swab to suspend the microorganism grown on the slant. Each resulting suspension is diluted into sterile saline (1 part suspension: 9 parts sterile saline). Aliquots of these dilutions are placed in individual wells of Steer's Replicator and petri plates inoculated as previously described. The petri plates are incubated at 30° C. and read after 48 hours for yeast and 72 hours for fungi.
as §4

[11] = tested on: Candida albicans (Ca); experiment: as above; type: cell-based, Candida albicans ATCC 10231; details: malt yeast agar; 30° C.; 48 hours for yeast; read-out: Minimum Inhibitory Concentration, Ca
Experimental: as §1, §5, §4

[12] = tested on: Penicillium chrysogenum (Pc); experiment: as above; type: cell-based, Penicillium chrysogenum ATCC 9480; details: read-out: Minimum Inhibitory Concentration, Pc
Experimental: as §1, §5, §4

[13] = tested on: Saccharomyces cerevisiae (Sc); experiment: as above; type: cell-based, Saccharomyces cerevisiae ATCC 4105; details: malt yeast agar, 30° C., 48 hours for yeast, read-out: Minimum Inhibitory Concentration, Sc
Experimental: as §1, §5, §4

[14] = tested on: Trichoderma viride (Tv); experiment: as above; type: cell-based, Trichoderma viride ATCC 8678; details: malt yeast agar; 30° C.; 72 hours for fungi; read-out: Minimum Inhibitory Concentration, Tv
Experimental: as §1, §5, §4

[15] = tested on: Aureobasidium pullulan (Ap); experiment: as above; type: cell-based, Aureobasidium pullulan ATCC 16622; details: read-out: Minimum Inhibitory Concentration, Ap
Experimental: as §1, §5, §4

[16] = tested on: Fusarium oxysporum (Fo); experiment: as above; type: cell-based, Fusarium oxysporum ATCC 48112; details: malt yeast agar; 30° C.; 72 hours for fungi; read-out: Minimum Inhibitory Concentration, Fo
Experimental: as §1, §5, §4

[17] = 48 h, pH 6.8, read-out: Minimum Inhibitory Concentration, Bs
[18] = 48 h, pH 8.2, read-out: Minimum Inhibitory Concentration, Bs
[19] = 48 h, pH 6.8, read-out: Minimum Inhibitory Concentration, Ea
[20] = 48 h, pH 8.2, read-out: Minimum Inhibitory Concentration, Ea
[21] = pH 6.8, read-out: Minimum Inhibitory Concentration, Ec
[22] = pH 8.2, read-out: Minimum Inhibitory Concentration, Ec
[23] = 48 h, pH 8.2, read-out: Minimum Inhibitory Concentration, Kp
[24] = pH 6.8, nutrient agar, 30° C., 48 hours, read-out: Minimum Inhibitory Concentration, Kp
[25] = 48 h, pH 6.8, read-out: Minimum Inhibitory Concentration, Pv
[26] = 48 h, pH 8.2, read-out: Minimum Inhibitory Concentration, Pv
[27] = 48 h, pH 6.8, read-out: Minimum Inhibitory Concentration, PRD
[28] = 48 h, pH 8.2, read-out: Minimum Inhibitory Concentration, PRD
[29] = 48 h, pH 6.8, read-out: Minimum Inhibitory Concentration, Sc
[30] = 48 h, pH 8.2, read-out: Minimum Inhibitory Concentration, Sc
[31] = 48 h, pH 8.2, read-out: Minimum Inhibitory Concentration, Sa
[32] = pH 6.8, nutrient agar, 30° C., 48 hours, read-out: Minimum Inhibitory Concentration, Sa
[33] = malt yeast agar, 30° C., 48 hours for yeast and 72 hours for fungi
[34] = malt yeast agar, 30° C., 72 hours for fungi

Structure (SMILES) | MIC [1, 17] [µg/mL] | MIC [1, 18] [µg/mL] | MIC [2, 19] [µg/mL] | MIC [2, 20] [µg/mL] | MIC [3, 21] [µg/mL] | MIC [3, 22] [µg/mL] | MIC [4, 23] [µg/mL] | MIC [4, 24] [µg/mL] | MIC [5, 25] [µg/mL] | MIC [5, 26] [µg/mL] | MIC [6, 27] [µg/mL] | MIC [6, 28] [µg/mL] | MIC ([7]; pH 8.2, 30° C.) [µg/mL] | MIC [8, 30] [µg/mL] | MIC [9, 32] [µg/mL] | MIC [10] [µg/mL] | MIC [11] [µg/mL] | MIC [13] [µg/mL] | MIC [14] [µg/mL] | MIC [16] [µg/mL] | other results
Cc1cc2nc3c(nc2cc1[N+](=O)[O-])SC(=C(C#N)C#N)S3 [R, 6-nitro-7-methyl-1,3-dithiolo-(4,5-b)-quinoxaline-2-ylidene-propanedinitrile] | > 500 | > 500 | > 500 | > 500 | > 500 | > 500 | > 500 | > 500 | > 500 | > 500 | > 500 | > 500 | > 500 | > 500 | > 500 | 100 (≈ 305 µM) | > 500 | 500 (≈ 1530 µM) | > 500 | > 500 | MIC ([7]; pH 6.8, 30° C.): > 500 µg/mL; MIC [8, 29]: > 500 µg/mL; MIC [9, 31]: > 500 µg/mL; MIC ([12]; 72 h): 50 µg/mL (≈ 153 µM); MIC [15, 33]: 500 µg/mL (≈ 1530 µM)
N#CC(C#N)=C1Sc2nc3cc(Cl)c([N+](=O)[O-])cc3nc2S1 [Q, 6-chloro-7-nitro-1,3-dithiolo-(4,5-b)-quinoxaline-2-ylidene-propanedinitrile] | > 500 | > 500 | > 500 | > 500 | > 500 | > 500 | > 500 | > 500 | > 500 | > 500 | > 500 | > 500 | > 500 | > 500 | > 500 | 500 (≈ 1440 µM) | 500 (≈ 1440 µM) | 500 (≈ 1440 µM) | > 500 | > 500 | MIC ([7]; pH 6.8, 30° C.): > 500 µg/mL; MIC [8, 29]: > 500 µg/mL; MIC [9, 31]: > 500 µg/mL; MIC [12, 34]: 500 µg/mL (≈ 1440 µM); MIC [15]: 50 µg/mL (≈ 144 µM)
N#CC1=C(C#N)Sc2nc3cc(C(F)(F)F)ccc3nc2S1 [K, 7-trifluoromethyl-1,4-dithiino-(2,3-b)-quinoxaline-2,3-dicarbonitrile] | – | – | – | > 500 | 50 (≈ 149 µM) | > 500 | > 500 | – | – | > 500 | – | > 500 | > 500 | > 500 | 25 (≈ 74.3 µM) | 25 (≈ 74.3 µM) | < 10 | < 10 | 25 (≈ 74.3 µM) | 25 (≈ 74.3 µM) | MIC ([1]; pH 6.8, nutrient agar, 30° C., 48 hours, read-out: Minimum Inhibitory Concentration, Bs): < 10 µg/mL; MIC ([1]; pH 8.2, nutrient agar, 30° C., 48 hours, read-out: Minimum Inhibitory Concentration, Bs): 100 µg/mL (≈ 297 µM); MIC ([2]; pH 6.8, nutrient agar, 30° C., 48 hours, read-out: Minimum Inhibitory Concentration, Ea): 250 µg/mL (≈ 743 µM); MIC ([4]; 48 h, pH 6.8, read-out: Minimum Inhibitory Concentration, Kp): 50 µg/mL (≈ 149 µM); MIC ([5]; pH 6.8, nutrient agar, 30° C., 48 hours, read-out: Minimum Inhibitory Concentration, Pv): 50 µg/mL (≈ 149 µM); MIC ([6]; pH 6.8, nutrient agar, 30° C., 48 hours, read-out: Minimum Inhibitory Concentration, PRD): 250 µg/mL (≈ 743 µM); MIC ([8]; pH 6.8, nutrient agar, 30° C., 48 hours, read-out: Minimum Inhibitory Concentration, Sc): 50 µg/mL (≈ 149 µM); MIC ([9]; pH 8.2, nutrient agar, 30° C., 48 hours, read-out: Minimum Inhibitory Concentration, Sa): 100 µg/mL (≈ 297 µM); MIC [12, 34]: 25 µg/mL (≈ 74.3 µM); MIC [15, 33]: < 10 µg/mL
N#CC(C#N)=C1Sc2nc3ccccc3nc2S1 [Compound P, 1,3-dithiolo-(4,5-b)-quinoxaline-2-ylidene-propanedinitrile] | > 500 | > 500 | > 500 | > 500 | > 500 | > 500 | > 500 | > 500 | > 500 | > 500 | > 500 | > 500 | > 500 | > 500 | > 500 | 500 (≈ 1860 µM) | > 500 | > 500 | > 500 | > 500 | MIC ([7]; pH 6.8, 30° C.): > 500 µg/mL; MIC [8, 29]: > 500 µg/mL; MIC [9, 31]: > 500 µg/mL; MIC [12, 34]: 500 µg/mL (≈ 1860 µM); MIC [15, 33]: 500 µg/mL (≈ 1860 µM)
